Results published in PubChem BioAssay AID300 (DTP/NCI, 2004).
Values joined by “and” are separate entries in the source; they are usually repeats but may differ in a detail not shown here. Identical values can stand only once. Inconclusive results are not listed. Rule for the calls: active = survival T/C of 150% or more; inactive = T/C below 125% in these data.

Test system: Madison 109 lung carcinoma i.m., mice, median survival
Assay: NCI In Vivo Anticancer Drug Screen. Data for tumor model Madison 109 Lung Carcinoma (intramuscular) in unknown mice
Conditions: endpoint: median survival time, higher = longer survival
Protocol: The antitumor activity of compounds was measured in mice bearing transplantable tumors. Survival or tumor size were measured and the results are expressed as the measurement made in the treated group (T) divided by the measurement made in the vehicle treated control group (C). The tumor model used in this assay is Madison 109 Lung Carcinoma (intramuscular) in unknown mice

[1] = dose: 400.0 mg/kg/injection, schedule: Q01DX009 (ip), vehicle: other
[2] = dose: 10.0 mg/kg/injection, schedule: Q02DX009 (ip), vehicle: water
[3] = dose: 20.0 mg/kg/injection, schedule: Q02DX009 (ip), vehicle: water
[4] = dose: 80.0 mg/kg/injection, schedule: Q02DX009 (ip), vehicle: water
[5] = dose: 0.1 mg/kg/injection, schedule: Q01DX009 (ip), vehicle: saline
[6] = dose: 0.2 mg/kg/injection, schedule: Q01DX009 (ip), vehicle: saline

Measured: T/C

COc1cccc2c1C(=O)c1c(O)c3c(c(O)c1C2=O)C[C@@](O)(C(=O)CO)C[C@@H]3OC1CC(N)C(O)C(C)O1 (some centres not stated)
inactive: dose: 0.25 mg/kg/injection, schedule: Q01DX005 (ip), vehicle: water 102 % of control | dose: 0.4 mg/kg/injection, schedule: Q01DX009 (ip), vehicle: water 98 % of control | dose: 0.5 mg/kg/injection, schedule: Q01DX005 (ip), vehicle: water 119 % of control and 120 % of control | dose: 0.63 mg/kg/injection, schedule: Q04DX003 (ip), vehicle: water 104 % of control | dose: 0.8 mg/kg/injection, schedule: Q01DX009 (ip), vehicle: water 104 % of control | dose: 1.0 mg/kg/injection, schedule: Q01DX005 (ip), vehicle: water 120 % of control | dose: 1.2 mg/kg/injection, schedule: Q01DX009 (ip), vehicle: water 105 % of control | dose: 1.25 mg/kg/injection, schedule: Q04DX003 (ip), vehicle: water 96 % of control | dose: 1.6 mg/kg/injection, schedule: Q01DX009 (ip), vehicle: water 102 % of control | dose: 2.5 mg/kg/injection, schedule: Q01DX005 (ip), vehicle: water 36 % of control | dose: 2.5 mg/kg/injection, schedule: Q04DX003 (ip), vehicle: water 101 % of control

CCN(CC)CCOc1ccc2c(c1)C(=O)c1cc(OCCN(CC)CC)ccc1-2
inactive: dose: 25.0 mg/kg/injection, schedule: Q04DX009 (ip), vehicle: Klucel (hydroxypropylcellulose) (HPC) 111 % of control | dose: 50.0 mg/kg/injection, schedule: Q04DX009 (ip), vehicle: Klucel (hydroxypropylcellulose) (HPC) 114 % of control | dose: 75.0 mg/kg/injection, schedule: Q04DX009 (ip), vehicle: Klucel (hydroxypropylcellulose) (HPC) 102 % of control

O=C1OC(C(O)CO)C(O)=C1O (configuration not stated)
inactive: [1] 98 % of control | dose: 800.0 mg/kg/injection, schedule: Q01DX009 (ip), vehicle: other 96 % of control | dose: 1600.0 mg/kg/injection, schedule: Q01DX009 (ip), vehicle: other 98 % of control

O=[N+]([O-])c1cccc([N+](=O)[O-])c1Cl
inactive: [2] 105 % of control | [3] 113 % of control | [4] 122 % of control | dose: 160.0 mg/kg/injection, schedule: Q02DX009 (ip), vehicle: water 112 % of control and 103 % of control

COC1=C(N)C(=O)c2nc(-c3nc(C(=O)O)c(C)c(-c4ccc(OC)c(OC)c4O)c3N)ccc2C1=O
inactive: dose: 2.0 micrograms/kg/injection, schedule: Q01DX009 (ip), vehicle: other 102 % of control | dose: 5.0 micrograms/kg/injection, schedule: Q01DX009 (ip), vehicle: other 103 % of control and 111 % of control | dose: 10.0 micrograms/kg/injection, schedule: Q01DX009 (ip), vehicle: other 106 % of control and 116 % of control | dose: 20.0 micrograms/kg/injection, schedule: Q01DX009 (ip), vehicle: other 115 % of control and 117 % of control | dose: 30.0 micrograms/kg/injection, schedule: Q01DX009 (ip), vehicle: other 109 % of control

CN(C)/N=N/c1nc[nH]c1C(N)=O
inactive: dose: 200.0 mg/kg/injection, schedule: Q01DX009 (ip), vehicle: Klucel (hydroxypropylcellulose) (HPC) 121 % of control

COc1cccc2c1C(=O)c1c(O)c3c(c(O)c1C2=O)C[C@@](O)(C(C)=O)C[C@@H]3OC1CC(N)C(O)C(C)O1 (some centres not stated)
inactive: dose: 0.25 mg/kg/injection, schedule: Q04DX003 (ip), vehicle: water 108 % of control | dose: 0.5 mg/kg/injection, schedule: Q04DX003 (ip), vehicle: water 120 % of control | dose: 1.0 mg/kg/injection, schedule: Q01DX009 (ip), vehicle: water 111 % of control | dose: 1.0 mg/kg/injection, schedule: Q04DX003 (ip), vehicle: water 94 % of control | dose: 1.5 mg/kg/injection, schedule: Q01DX009 (ip), vehicle: water 55 % of control | dose: 1.5 mg/kg/injection, schedule: Q04DX003 (ip), vehicle: water 122 % of control | dose: 2.5 mg/kg/injection, schedule: Q01DX009 (ip), vehicle: water 32 % of control

O=CC(NC(=O)N(CCCl)N=O)C(O)C(O)C(O)CO (configuration not stated)
inactive: dose: 5.0 mg/kg/injection, schedule: Q01DX001 (ip), vehicle: saline 108 % of control | dose: 8.4 mg/kg/injection, schedule: Q01DX001 (ip), vehicle: saline 106 % of control | dose: 14.0 mg/kg/injection, schedule: Q01DX001 (ip), vehicle: saline 105 % of control | dose: 23.0 mg/kg/injection, schedule: Q01DX001 (ip), vehicle: saline 96 % of control

NC(=O)c1cn[nH]c1N
inactive: dose: 50.0 mg/kg/injection, schedule: Q01DX009 (ip), vehicle: other 97 % of control | dose: 100.0 mg/kg/injection, schedule: Q01DX009 (ip), vehicle: other 94 % of control | dose: 200.0 mg/kg/injection, schedule: Q01DX009 (ip), vehicle: other 92 % of control | [1] 102 % of control

Cc1c2ccncc2c(C)c2c1[nH]c1ccccc12
inactive: dose: 2.0 mg/kg/injection, schedule: Q01DX009 (ip), vehicle: other 119 % of control | dose: 4.0 mg/kg/injection, schedule: Q01DX009 (ip), vehicle: other 121 % of control | dose: 8.0 mg/kg/injection, schedule: Q01DX009 (ip), vehicle: other 111 % of control | dose: 16.0 mg/kg/injection, schedule: Q01DX009 (ip), vehicle: other 111 % of control

CO[C@@]12[C@H](COC(N)=O)C3=C(C(=O)C(C)=C(N)C3=O)N1C[C@@H]1N[C@@H]12
inactive: [5] 106 % of control | [6] 96 % of control | dose: 0.4 mg/kg/injection, schedule: Q01DX009 (ip), vehicle: saline 108 % of control | dose: 0.8 mg/kg/injection, schedule: Q01DX009 (ip), vehicle: saline 109 % of control

O=c1[nH]cc(F)c(=O)[nH]1
inactive: dose: 5.0 mg/kg/injection, schedule: Q01DX009 (ip), vehicle: saline 94 % of control | dose: 10.0 mg/kg/injection, schedule: Q01DX009 (ip), vehicle: saline 88 % of control | dose: 15.0 mg/kg/injection, schedule: Q01DX009 (ip), vehicle: saline 123 % of control | dose: 20.0 mg/kg/injection, schedule: Q01DX009 (ip), vehicle: saline 113 % of control

C1CN1c1nc(N2CC2)nc(N2CC2)n1
inactive: dose: 0.02 mg/kg/injection, schedule: Q01DX009 (ip), vehicle: saline 101 % of control | dose: 0.05 mg/kg/injection, schedule: Q01DX009 (ip), vehicle: saline 110 % of control | [5] 112 % of control | [6] 102 % of control

Nc1n[nH]c(N)n1
inactive: dose: 300.0 mg/kg/injection, schedule: Q01DX009 (ip), vehicle: water 118 % of control | dose: 500.0 mg/kg/injection, schedule: Q01DX009 (ip), vehicle: water 118 % of control | dose: 600.0 mg/kg/injection, schedule: Q01DX009 (ip), vehicle: water 100 % of control

CC[C@H]1CN2CCc3cc(OC)c(OC)cc3[C@@H]2C[C@@H]1C[C@H]1NCCc2cc(OC)c(OC)cc21
inactive: dose: 2.0 mg/kg/injection, schedule: Q01DX009 (ip), vehicle: water 115 % of control | dose: 3.0 mg/kg/injection, schedule: Q01DX009 (ip), vehicle: water 115 % of control | dose: 4.0 mg/kg/injection, schedule: Q01DX009 (ip), vehicle: water 112 % of control | dose: 6.0 mg/kg/injection, schedule: Q01DX009 (ip), vehicle: water 115 % of control

CSCS(=O)C[C@H](CO)NC(=O)/C=C/c1c(C)[nH]c(=O)[nH]c1=O (some centres not stated)
inactive: dose: 0.02 mg/kg/injection, schedule: Q01DX009 (ip), vehicle: water 89 % of control | dose: 0.05 mg/kg/injection, schedule: Q01DX009 (ip), vehicle: water 97 % of control | dose: 0.1 mg/kg/injection, schedule: Q01DX009 (ip), vehicle: water 91 % of control | dose: 0.2 mg/kg/injection, schedule: Q01DX009 (ip), vehicle: water 94 % of control

O=[N+]([O-])c1ccc(Cl)cc1[N+](=O)[O-]
inactive: [2] 121 % of control | [3] 118 % of control | [4] 119 % of control
